From patent publication US9408853B2, “Iridium/rhodium anti-cancer compounds” (University of Warwick, priority 2010, dated 2016)

Key:
CH1 cancer cell line = experiment: Cytotoxicity, MTT assay (Brabec group); type: cell-based; conditions: for IC50: 72 h incubation, MTT; for cytotoxicity towards CH1 (in words): highest test concentration 130 μM
Experimental: (§1) The cytotoxicity test of ZL07, ZL33, ZL38 and ZL54 against A2780, SW480, A549 and CH1 cell lines was performed by Viktor Brabec group (Institute of Biophysics, Academy of Sciences of the Czech Republic). After plating, the cells were treated with ZL07, ZL33, ZL38 and ZL54. After 72h of incubation 10 μl of MTT (2.5 mg/ml; CALBIOCHEM) was added to each well and incubated for 4 h in culture conditions. At the end of the incubation period the medium was removed and the formazan product was dissolved in 100 μl DMSO. The cell viability was evaluated by measurement of the absorbance at 570 nm, using an Absorbance Reader SUNRICE TECAN SCHOELLER. […] All experiments were made in quadruplicate.

SW480 cancer cell line = experiment: Cytotoxicity, MTT assay (Brabec group); type: cell-based; conditions: for IC50: 72 h incubation, MTT; for cytotoxicity towards SW480 (in words): highest test concentration 130 μM
Experimental: as §1

A549 cancer cell line = experiment: Cytotoxicity, MTT assay (Brabec group); type: cell-based; conditions: for IC50: 72 h incubation, MTT
Experimental: as §1

[1] = system: human ovarian A2780 cancer cells; experiment: Cancer cell cytotoxicity, SRB assay; type: cell-based; conditions: 24 h exposure, 72 h recovery, SRB; read-out: A2780 IC50
Experimental: Cancer Cell Cytotoxicity. After plating, human ovarian A2780 cancer cells were treated with Ir^III complexes on day 3 at concentrations ranging from 0.5 μM to 100 μM. Solutions of the Ir^III complexes were made up in 0.125% DMSO to assist dissolution. Stock solutions of the IrIII complexes were firstly prepared in DMSO to assist dissolution, and then diluted into 0.9% saline and medium. After plating 5000 A2780 cells per well on day 1, IrIII complexes were added to the cancer cells on day 3 at concentrations ranging from 0.05 μM to 100 μM. Cells were exposed to the complexes for 24 h, washed, supplied with fresh medium, allowed to grow for three doubling times (72 h), and then the protein content measured (proportional to cell survival) using the sulforhodamine B (SRB) assay.^15 […]. The standard errors are based on two independent experiments of three replicates each.

[2] = Kinetics of hydrolysis followed by 1H NMR; type: physicochemical; conditions: for rate of hydrolysis (in words): 1H NMR, even at 278K; for k (hydrolysis): 0.2 mM, 5% MeOD-d4/95% D2O, pH* 3; for Ea (Arrhenius activation energy of hydrolysis): from Arrhenius plot; for ΔH^‡ (activation enthalpy of hydrolysis) / ΔS^‡ (activation entropy of hydrolysis): from Eyring plot
Experimental: Kinetics for Hydrolysis. Although complexes ZL01-ZL04, ZL07, ZL38 and ZL43 hydrolyzed too rapidly to monitor by ^1H NMR, The kinetics of hydrolysis for complexes ZL25, ZL33, ZL37 and ZL54 were followed by ^1H NMR at different temperatures. For this, solutions of the complexes with a final concentration of 0.2 mM in 5% MeOD-d4/95% D2O (v/v) were prepared by dissolution of the complexes in MeOD-d4 followed by rapid dilution using D2O with a pH* of about 3 (acidified with HClO4), so that the aqua ligand was not deprotonated. ^1H NMR spectra were taken after various time intervals. The rates of hydrolysis were determined by fitting plots of concentrations (determined from ^1H NMR peak integrals) versus time to a pseudo first-order equation using ORIGIN version 7.0. The Arrhenius activation energy (Ea), activation enthalpies (ΔH^¢), and activation entropy (ΔS^‡) for compounds ZL25, ZL33, ZL37 and ZL54 were determined from the slopes of the Arrhenius and intercepts of Eyring plots.
The rates of hydrolysis of compounds ZL01-ZL04, ZL07, ZL25, ZL33, ZL37, ZL38, ZL43 and ZL54 in a 5% MeOD-d4/95% D2O were monitored by ^1H NMR at different temperature from 278 to 298 K by the observation of new peaks over time due to aqua adduct formation. Five percent MeOD was used to improve solubility, and acidic conditions (D2O, pH* 3) were used to prevent the deprotonation of the aqua complex as a secondary reaction. […] The percentage of aqua peak formation for ZL25, ZL33, ZL37 and ZL54 was plotted against time and was fitted to pseudofirst order kinetics (FIG. 3), and their halflife times were calculated (Table 1). The Arrhenius activation energy (Ea), activation enthalpy (ΔH^¢), and activation entropy (ΔS^‡) of compound ZL25, ZL33, ZL37 and ZL54 are listed in Table 4. The large negative ΔS^‡value for compound ZL54 is notable. The extent of hydrolysis at equilibrium is medium for all compounds, ranged from 30% to 60%.

9-ethyladenine (9-EtA) = experiment: Interactions with nucleobases: 9-EtA adduct formation (1H NMR); type: binding; conditions: 1 mM, 1 mol equiv 9-EtA, D2O, 310 K
Experimental: (§2) Interactions with Nucleobases. The reaction of ZL01, ZL03, ZL04, ZL07, ZL25, ZL33, ZL37, ZL38, ZL43 and ZL54 and ZL33A with nucleobases typically involved addition of a solution containing 1-2 mol equiv of nucleobase in D2O, to an equilibrium solution of ZL01, ZL03, ZL04, ZL07, ZL25, ZL33, ZL37, ZL38, ZL43, ZL54 and ZL33A in a solution of 5% MeOD-d4/95% D2O (v/v). ^1H NMR spectra of these solutions were recorded at 310 K after various time intervals.
(§3) Since DNA is a potential target site for transition metal anticancer complexes,^18 nucleobase binding reactions of compounds ZL01, ZL03, ZL04, ZL07, ZL25, ZL33, ZL33A, ZL37, ZL38, ZL43 and ZL54 with nucleobase models 9-ethylguanine (9-EtG) and 9-ethyladenine (9-EtA), were investigated. Solutions of ZL01, ZL03, ZL04, ZL07, ZL25, ZL33, ZL37, ZL38, ZL43 and ZL54 (1 mM) (containing an equilibrium mixture of these complexes and their respective aqua adducts) with 1 mol equivalent of 9-EtG or 9-EtA in D2O were prepared, and ^1H NMR spectra were recorded at different time intervals.

9-ethylguanine (9-EtG) = experiment: Interactions with nucleobases: 9-EtG adduct formation (1H NMR); type: binding; conditions: 1 mM, 1 mol equiv 9-EtG (ZL33A: 2 mol equiv), D2O, 310 K
Experimental: as §2, §3
Interactions with Nucleobases. Since DNA is a potential target site for transition metal anticancer complexes,^23 the binding of 9-ethylguanine (9-EtG) to complexes ZL47, ZL49, ZL69, ZL74 and ZL107 was studied.

[3] = system: ca. 60 cell lines within nine tumour type subpanels; type: cell-based
Text: Six complexes, [(η^5-C5Me4C6H4C6H5)Ir(bpy)Cl]PF6 (ZL25, bpy=2,2′-bipyridine), [(η^5-C5Me4C6H5)Ir(phen)Cl]PF6 (ZL33, phen=1,10-phenanthroline), [(η^5-C5Me4C6H4C6H5) Ir(pico)Cl] (ZL43, pico=picolinate), [(η^5-C5Me5)Ir(2-phpy)Cl] (ZL47), [(η^5-C5Me4C6H4C6H5)Ir(2-phPY)(D2O)Cl] (ZL49) and [(η^5-C5Me4C6H4C6H5) Ir(phen)Cl]PF6 (ZL54), were selected by Developmental Therapeutics Program of National Cancer Institute (NCI, U.S.A.) for in vitro screening test, in which 5 complexes except ZL43 are selected for further testing. The five complexes were tested on ca. 60 cell lines within nine tumour type subpanels at five concentrations ranging from 0.01 to 100 μM.

Molecule	IC50 (CH1 cancer cell line) [nM]	IC50 (SW480 cancer cell line) [µM]	IC50 (A549 cancer cell line) [µM]	IC50 [1] [µM]	rate of hydrolysis (in words) [2]	Reaction with 9-EtA, extent of adduct formation (9-ethyladenine (9-EtA); 10 min) [%]	Reaction with 9-EtA, extent of adduct formation (9-ethyladenine (9-EtA); 24 h) [%]	Reaction with 9-EtG, extent of adduct formation (9-ethylguanine (9-EtG); 10 min) [%]	k (hydrolysis) ([2]; 278 K) [min⁻¹]	Ea (Arrhenius activation energy of hydrolysis) [2] [kJ/mol]	ΔH^‡ (activation enthalpy of hydrolysis) [2] [kJ/mol]	ΔS^‡ (activation entropy of hydrolysis) [2] [J K^−1mol^−1]	Reaction with 9-EtG, extent of adduct formation (9-ethylguanine (9-EtG); 24 h) [%]	also measured
N.N.[Cl][Pt][Cl] [Cisplatin, reference compound]	590 ± 100	9.24 ± 1.1	5.9 ± 1.9	1.2	–	–	–	–	–	–	–	–	–	–
Cc1c(C)c(C)[c-](C)c1C.[Cl-].[Cl-].[Ir+3].c1cnc2c(c1)ccc1cccnc12 [ZL07, [(η^5-C5Me5)Ir(phen)Cl]Cl]	50700 ± 2800	80.1 ± 1.5	> 130	> 100	too rapid to be observed	0	0	73.1	–	–	–	–	–	cytotoxicity towards CH1 (in words) (CH1 cancer cell line): moderate activity; cytotoxicity towards SW480 (in words) (SW480 cancer cell line): moderate activity
Cc1c(C)c(-c2ccc(-c3ccccc3)cc2)[c-](C)c1C.F[P-](F)(F)(F)(F)F.[Cl-].[Ir+3].c1ccc(-c2ccccn2)nc1 (stereo not shown) [ZL25, [(η^5-C5Me4C6H4C6H5)Ir(bipy)Cl]PF6]	–	–	–	0.57	–	0	0	24.2	0.0249	60.4	58.1	−66.02	–	CC50 [3]: 67.6 µM; Mean graph midpoint (MID) TGI ([3]; ca. 60 cell lines, 0.01 to 100 μM): 19.1 µM; GI50 ([3]; ca. 60 cell lines, 0.01 to 100 μM, read-out: Mean graph midpoint (MID) GI50): 4.1 µM; selectivity among tumour type subpanels (in words) ([3]; mean graphs): selectivity with higher activity not only towards leukemia, CNS cancer, melanoma, and prostate cancer, but also against colon cancer and breast cancer; k (hydrolysis) ([2]; 283 K): 0.0405 min⁻¹; k (hydrolysis) ([2]; 293 K): 0.0986 min⁻¹
Cc1c(C)c(-c2ccccc2)[c-](C)c1C.F[P-](F)(F)(F)(F)F.[Cl-].[Ir+3].c1ccc(-c2ccccn2)nc1 (stereo not shown) [ZL37, [(η^5-C5Me4C6H5)Ir(bipy)Cl]PF6]	–	–	–	15.9	–	0	0	18.6	0.0341	82.4	79.8	14.7	–	k (hydrolysis) ([2]; 283 K): 0.0652 min⁻¹; k (hydrolysis) ([2]; 288 K): 0.1229 min⁻¹
Cc1c(C)c(-c2ccccc2)[c-](C)c1C.O=C([O-])c1ccccn1.[Cl-].[Ir+3] (stereo not shown) [ZL38, [(η^5-C5Me4C6H5)Ir(η^2-C5H4N-2-CO2)Cl]]	> 130000	> 130	> 130	> 100	too rapid to be observed	76.0	76.0	100	–	–	–	–	100	cytotoxicity towards CH1 (in words) (CH1 cancer cell line): nontoxic; cytotoxicity towards SW480 (in words) (SW480 cancer cell line): nontoxic; cytotoxicity towards A549 (in words) (A549 cancer cell line; highest test concentration 130 μM): nontoxic
Cc1c(C)c(-c2ccc(-c3ccccc3)cc2)[c-](C)c1C.O=C([O-])c1ccccn1.[Cl-].[Ir+3] (stereo not shown) [ZL43, [(η^5-C5Me4C6H4C6H5)Ir(η^2—C5H4N-2-CO2)Cl]]	–	–	–	16.3	too rapid to be observed	71	71	100	–	–	–	–	100	–
Cc1c(C)c(-c2ccc(-c3ccccc3)cc2)[c-](C)c1C.F[P-](F)(F)(F)(F)F.[Cl-].[Ir+3].c1cnc2c(c1)ccc1cccnc12 (stereo not shown) [ZL54, [(η^5-C5Me4C6H4C6H5)Ir(phen)Cl]PF6]	690 ± 40	1.38 ± 0.2	1.58 ± 0.4	0.72	–	0	0	62.2	0.0179	45.6	43.4	−121.2	–	times more active than cisplatin (SW480 cancer cell line; SW480): about 6.7 times; times more active than cisplatin (A549 cancer cell line; A549): ~3.7 times; k (hydrolysis) ([2]; 288 K): 0.0352 min⁻¹; k (hydrolysis) ([2]; 293 K): 0.0516 min⁻¹
[(η^5-C5Me4C6H5)Ir(phen)(H2O)]^2+ [ZL33A]	–	–	–	6.7	–	0	0	65	–	–	–	–	73	–
